Results on 3 compounds are retold here after ChEMBL document CHEMBL4334448, “Chivosazole A Modulates Protein-Protein Interactions of Actin” (J Nat Prod, 2019).

The structures appear in SMILES notation. Calls of active or inactive are those of the source. The calls are words filed in the database; no cut-off is given here.

In assay [1] the target is Actin, alpha skeletal muscle (Oryctolagus cuniculus) (UniProt P68135). The assay is described as follows: (§1) Inhibition of rabbit skeletal muscle alpha-actin polymerization measured after 24 hrs in presence of ATP and fluorescent pyrene-labelled actin by fluorescence based assay.
Assay [2] deals with Actin, alpha skeletal muscle (Oryctolagus cuniculus, UniProt P68135). Described as §1.
In assay [3] the target is Actin, alpha skeletal muscle (Oryctolagus cuniculus) (UniProt P68135). The assay is described as follows: Inhibition of immobilized rabbit skeletal muscle alpha-actin interaction with thymosin-beta4 at 40 uM pretreated for 30 mins followed by thymosin-beta4 addition measured after 45 mins by cross-linking assay.
Assay [4] shares this target. The assay is described as follows: Inhibition of immobilized rabbit skeletal muscle alpha-actin interaction with profilin at 66.7 uM pretreated for 30 mins followed by profilin addition measured after 1 hr by pull-down assay.
Assay [5] deals with HUVEC. In words: Inhibition of cell migration in human HUVEC cells assessed as decrease in cell velocity measured after 16 hrs by crystal violet staining based scratch assay. The format is functional.
Assay [6] relates to HUVEC. The assay is described as follows: Antiproliferative activity against human HUVEC measured after 72 hrs. Format: cell-based.
Assay [7] concerns the target Actin, alpha skeletal muscle (Oryctolagus cuniculus) (UniProt P68135). In words: Inhibition of immobilized rabbit skeletal muscle alpha-actin interaction with cofilin at 56 uM pretreated for 30 mins followed by cofilin addition measured after 1 hr by pull-down assay.
Assay [8] shares this target. In words: Inhibition of immobilized rabbit skeletal muscle alpha-actin interaction with gelsolin at 12.5 uM pretreated for 30 mins followed by gelsolin addition measured after 1 hr by pull-down assay.
Assay [9] has the same target. In words: Binding affinity to immobilized rabbit skeletal muscle alpha-actin assessed as formation of G-actin dimers at 40 uM and pH 6.8 to 8 treated for 30 mins in absence of thymosin-beta4 by size-exclusion chromatography. Background: In gel filtration, larger molecules generally elute earlier.
Assay [10] has the same target. The assay is described as follows: Inhibition of immobilized rabbit skeletal muscle alpha-actin interaction with thymosin-beta4 assessed as decrease in cross-linked complex formation at 40 uM pretreated for 30 mins followed by thymosin-beta4 addition measured after 45 mins by cross-linking assay.
Assay [11] shares this target. In words: Inhibition of rabbit skeletal muscle alpha-actin polymerization induced by Mg-ATP assessed as decrease in elongation rate at 500 nM to 5 uM measured every 1 sec for 5 mins in presence of Turkey gizzard alpha-actinin and […] fluorescent labelled actin by TIRF microscopy analysis.
The target is the same in assay [12]. In words: Binding affinity to immobilized rabbit skeletal muscle alpha-actin assessed change in retention time of G-actin dimers at 40 uM and pH 6.8 to 8 treated for 30 mins in absence of thymosin-beta4 by size-exclusion chromatography.
Assay [13] deals with HUVEC. In words: Induction of morphological changes in human HUVEC cells assessed as disruption of F-actin fibers at 10 nM to 100 nM incubated for 1 hr by rhodamine-phalloidin staining based fluorescence assay. Format: functional, cell-based.
Assay [14] addresses Actin, alpha skeletal muscle (Oryctolagus cuniculus) (UniProt P68135). The assay is described as follows: Inhibition of rabbit skeletal muscle alpha-actin nucleation at 500 nM to 5 uM in presence of Turkey gizzard alpha-actinin and […] fluorescent labelled actin by TIRF microscopy analysis.
Assay [15] relates to HUVEC. In words: Induction of morphological changes in human HUVEC cells assessed as amorphous actin aggregation in nucleus incubated for 1 hr by Hoechst staining based fluorescence assay. The format is functional, cell-based.
The target in assay [16] is Actin, alpha skeletal muscle (Oryctolagus cuniculus) (UniProt P68135). The assay is described as follows: Induction of rabbit skeletal muscle alpha-actin depolymerization assessed as destabilization of F-actin 5 uM measured every 15 sec for 90 mins in presence of Turkey gizzard alpha-actinin and […] fluorescent labelled actin by TIRF microscopy analysis.

Regarding `C/C1=C/C(=O)O[C@@H]2C[C@@H](CC[C@H](C)/C=C\CC1)O[C@@](O)([C@@H]1CSC(=O)N1)C2` [LATRUNCULIN B], the inhibition result in assay [1] was “Dose-dependent effect”. Besides, the half-inhibitory concentration (IC50) came to 8.47 µM in assay [2], 0.478 µM with HUVEC [5] and 0.612 µM in the assay on HUVEC [6]. Also, in assay [3], the inhibition result is “Active”. Further, the inhibition result in assay [4], in assay [7] and in assay [8] was “inactive” each time. Also, the outcome in [9] was inactive. In assay [10], the outcome was Active.
With `CO[C@@H]1C[C@@H](O)/C=C/C=C/C=C\[C@H](C)[C@@H]([C@@H](C)[C@@H](O)C[C@@H](C)O)OC(=O)\C=C/C=C/C=C\C(C)=C\[C@@H](C)[C@@H](O)/C=C\C=C\c2coc(n2)[C@@H]1C`, the inhibition entry in assay [4], in assay [7] and in assay [8] was “Active” in each case.
As for `CO[C@H]1[C@H](O[C@H]2/C=C\C=C\c3coc(n3)[C@H](C)[C@H](OC)C[C@@H](O)/C=C/C=C/C=C\[C@H](C)[C@@H]([C@@H](C)[C@@H](O)C[C@@H](C)O)OC(=O)\C=C/C=C/C=C\C(C)=C\[C@H]2C)O[C@H](C)[C@@H](O)[C@@H]1OC`, in assay [1], the inhibition result is “Dose-dependent effect”. The IC50 was 15.2 µM in [2], 0.0317 µM with HUVEC [5] and 0.00298 to 0.003 µM in the assay on HUVEC [6]. Also, the inhibition result in [11], in assay [3], in [4], in assay [7], in [14] and in [8] was “Active” throughout. Further, the result (in assay [12]; with HUVEC [13]; with HUVEC [15]; in assay [16]; in assay [9]; in assay [10]) was Active.

Broadly, the IC50 is the concentration at which inhibition is half-maximal.
